In ChEMBL document CHEMBL1158812, “Monoterpene lactones from the seeds of Nephelium lappaceum” (2005):

What was measured:
Type in all cases: functional
[1] = system: Escherichia coli; test: Antibacterial activity against Escherichia coli UPCC 1195 assessed as activity index at 30 ug by agar well method relative to control
[2] = system: Pseudomonas aeruginosa; test: Antibacterial activity against Pseudomonas aeruginosa UPCC 1244 assessed as activity index at 30 ug by agar well method relative to control
[3] = system: Pseudomonas aeruginosa; test: Antibacterial activity against Pseudomonas aeruginosa UPCC 1244 at 30 ug by agar well method; conditions: read-out: IZ
[4] = system: Escherichia coli; test: Antibacterial activity against Escherichia coli UPCC 1195 at 30 ug by agar well method; conditions: read-out: IZ
[5] = system: Bacillus subtilis; test: Antibacterial activity against Bacillus subtilis UPCC 1295 assessed as activity index at 30 ug by agar well method relative to control
[6] = system: Staphylococcus aureus; test: Antibacterial activity against Staphylococcus aureus UPCC 1143 at 30 ug by agar well method; conditions: read-out: IZ
[7] = system: Staphylococcus aureus; test: Antibacterial activity against Staphylococcus aureus UPCC 1143 assessed as activity index at 30 ug by agar well method relative to control
[8] = system: Bacillus subtilis; test: Antibacterial activity against Bacillus subtilis UPCC 1295 at 30 ug by agar well method; conditions: read-out: IZ
[9] = system: Trichophyton mentagrophytes; test: Antimicrobial activity against Trichophyton mentagrophytes UPCC 4193 assessed as activity index at 30 ug by agar well method relative to control
[10] = system: Trichophyton mentagrophytes; test: Antimicrobial activity against Trichophyton mentagrophytes UPCC 4193 at 30 ug by agar well method; conditions: read-out: IZ
[11] = system: Candida albicans; test: Antimicrobial activity against Candida albicans UPCC 2168 at 30 ug by agar well method; conditions: read-out: IZ
[12] = system: Aspergillus niger; test: Antimicrobial activity against Aspergillus niger UPCC 4219 at 30 ug by agar well method; conditions: read-out: IZ
[13] = system: Aspergillus niger; test: Antimicrobial activity against Aspergillus niger UPCC 4219 assessed as activity index at 30 ug by agar well method relative to control
[14] = system: Candida albicans; test: Antimicrobial activity against Candida albicans UPCC 2168 assessed as activity index at 30 ug by agar well method relative to control

With `O=C(N[C@H](CO)[C@H](O)c1ccc([N+](=O)[O-])cc1)C(Cl)Cl` [CHLORAMPHENICOL] the Activity_index [1] was 2.8, the Activity_index [2] was 1.3 and the zone of inhibition at 30 µg/disc [3] was 14 mm. The zone of inhibition at 30 µg/disc [4] was 23 mm, the Activity_index [5] was 2.3 and the zone of inhibition at 30 µg/disc [6] was 25 mm. The Activity_index [7] was 3.2 and the zone of inhibition at 30 µg/disc [8] was 20 mm.
In the case of `O=C1C[C@@]2(CO1)CO[C@@]1(CO)CC(=O)O[C@@H]21` [LAPPACEOLIDE A], the Activity_index [1] is reported as 0.1, the Activity_index [9] is reported as 0.4 and the Activity_index [2] is reported as 0.2. For the same molecule, the zone of inhibition at 30 µg/disc [3] was 12 mm, the zone of inhibition at 30 µg/disc [4] was 11 mm and the zone of inhibition at 30 µg/disc [10] was 14 mm. It also gave an Activity_index [5] of 0, a zone of inhibition at 30 µg/disc [6] of 11 mm and an Activity_index [7] of 0.1. For the same molecule, the zone of inhibition at 30 µg/disc [11] was 13 mm, the zone of inhibition at 30 µg/disc [12] was 12 mm and the Activity_index [13] was 0.2. For the same molecule, the Activity_index [14] was 0.3.
For `O=C1C[C@]2(CO1)CO[C@@]1(CO)CC(=O)O[C@@H]21` [LAPPACEOLIDE B], the Activity_index [1] was 0.1, the Activity_index [9] was 0.3 and the Activity_index [2] was 0.2. The zone of inhibition at 30 µg/disc [3] was 12 mm, the zone of inhibition at 30 µg/disc [4] was 11 mm and the zone of inhibition at 30 µg/disc [10] was 13 mm. The Activity_index [5] was 0, the zone of inhibition at 30 µg/disc [6] was 11 mm and the Activity_index [7] was 0.1. The zone of inhibition at 30 µg/disc [11] was 13 mm, the zone of inhibition at 30 µg/disc [12] was 11 mm and the Activity_index [13] was 0.1. The Activity_index [14] was 0.3.
